Assay results taken from patent publication US20240400531A1, “HERBICIDAL MALONAMIDES CONTAINING A CONDENSED RING SYSTEM” (BASF SE, priority 2021, published 2024).

How the values were obtained:
AMARE = assay: greenhouse post-emergence herbicidal test; format: in vivo, Amaranthus retroflexus; settings: post-emergence method, application rate 0.250 kg/ha, scale from 0 to 100
Text: (§1) The culture containers used were plastic flowerpots containing loamy sand with approximately 3.0% of humus as the substrate. The seeds of the test plants were sown separately for each species.
(§2) For the post-emergence treatment, the test plants were first grown to a height of 3 to 15 cm, depending on the plant habit, and only then treated with the active ingredients which had been suspended or emulsified in water. For this purpose, the test plants were either sown directly and grown in the same containers, or they were first grown separately as seedlings and transplanted into the test containers a few days prior to treatment.
(§3) Depending on the species, the test plants were kept at 10-25° C. or 20-35° C., respectively.
(§4) The test period extended over 2 to 4 weeks. During this time, the test plants were tended, and their response to the individual treatments was evaluated.
(§5) Evaluation was carried out using a scale from 0 to 100. 100 means no emergence of the test plants, or complete destruction of at least the aerial moieties, and 0 means no damage, or normal course of growth. A good herbicidal activity is given at values of 65 to <90 and a very good herbicidal activity is given at values of 90 to 100.

APESV = assay: greenhouse pre-emergence herbicidal test; format: in vivo, Apera spica-venti; settings: pre-emergence method, application rate 0.250 kg/ha, scale from 0 to 100
Text: as §1
For the pre-emergence treatment, the active ingredients, which had been suspended or emulsified in water, were applied directly after sowing by means of finely distributing nozzles. The containers were irrigated gently to promote germination and growth and subsequently covered with transparent plastic hoods until the test plants had rooted. This cover caused uniform germination of the test plants, unless this had been impaired by the active ingredients.
as §3, §4, §5

ECHCG = assay: greenhouse post-emergence herbicidal test; format: in vivo, Echinocloa crus-galli; settings: post-emergence method, application rate 0.250 kg/ha, scale from 0 to 100
Text: as §1, §2, §3, §4, §5

Row | SMILES | herbicidal activity against AMARE (AMARE) | herbicidal activity against APESV (APESV) | herbicidal activity against ECHCG (ECHCG)
1 | COC(C(=O)Nc1cccc2ocnc12)C(=O)N[C@H]1C=C[C@@H](C(=O)OC(C)C)C1 (stereo partly drawn) [I.11, isopropyl (1S,4R)-4-[[3-(1,3-benzoxazol-4-ylamino)-2-methoxy-3-oxo-propanoyl]amino]cyclopent-2-ene-1-carboxylate] | very good (a very good herbicidal activity is given at values of 90 to 100) | – | –
2 | COC(C(=O)Nc1cccc2occc12)C(=O)N[C@H]1C=C[C@@H](C(=O)OC(C)C)C1 (stereo partly drawn) [I.6, isopropyl (1S,4R)-4-[[3-(benzofuran-4-ylamino)-2-methoxy-3-oxo-propanoyl]amino]cyclopent-2-ene-1-carboxylate] | – | very good (a very good herbicidal activity is given at values of 90 to 100) | very good (a very good herbicidal activity is given at values of 90 to 100)
